Columns and labels:
splenic T cells = assay: mOX40L expression in splenic T cells, flow cytometry; assay type: in vivo, C57BL/6 female mice; settings: 1 mg/kg intravenously, 24 hours, IL:P 5.7
Method: The ionizable lipid: helper lipid: cholesterol: PEG-lipid molar ratio of these LNPs was 50:10:38.5:1.5. C57BL/6 female mice (6-8 weeks, n=4) were dosed at 1 mg/kg intravenously. At 24 hours, the spleen from the mice were collected for flow cytometry analysis, tested for weight loss and measured for serum alanine aminotransferase (ALT) after blood collection. mOX40L expression was measured in splenic T cells.

[1] = test system: splenic immune cells (T cells, myeloid cells, B cells, NK cells); assay: mOX40L expression in splenic immune cells, flow cytometry; assay type: in vivo, C57BL/6 female mice; settings: 1 mg/kg intravenously, 24 hours, IL:P 5.7, 50:10:38.5:1.5; compared to Lipid 15 of Table 10f
Method: The ionizable lipid: helper lipid: cholesterol: PEG-lipid molar ratio of these LNPs was 50:10:38.5:1.5. Dialysis of the LNPs were performed using PBS. C57BL/6 female mice (6-8 weeks, n=4) were dosed at either LNP comprising Lipid 1 of Table 10e or the Lipid 15 of Table 10f at 1 mg/kg intravenously. At 24 hours, the spleen from the mice were collected for flow cytometry analysis. mOX40L transfection of Lipid 1 of Table 10e and Lipid 15 of Table 10f were compared in T cells, myeloid cells, B cells, and NK cells.

**Q.** With `CCCCCCCCCCCCC(O)CN(CCCO)CCCCCCCC(=O)OC(CCCCCCCC)CCCCCCCC` (centres unmarked) [Lipid 1 of Table 10e, heptadecan-9-yl 8-((3-hydroxypropyl)(2-hydroxytetradecyl)amino)octanoate] as the compound, how does the “expression of mOX40L in splenic T cells” value (splenic T cells) read?
**A.** resulted in expression of mOX40L in splenic T cells

**Q.** And the “mOX40L transfection in splenic immune cells” value [1]?
**A.** comparable or higher levels of mOX40L transfection

Source: patent US12077485B2, “Lipid nanoparticle compositions for delivering circular polynucleotides” (Orna Therapeutics, Inc., priority 2021, dated 2024)
